From patent US5284837A, “Derivatives of purine, process for their preparation and a pharmaceutical preparation” (Medivir AB, priority 1988, dated 1994) come the findings set out here.

Series [1] is described as follows: Oral bioavailability in rat (Test III). Type of series: in vivo. The note with it: for plasma concentration of VSA 671 after VSA 671 has been given as 6-deoxy prodrug or ester: in words. The protocol: (§1) TEST III--ORAL BIOAVAILABILITY
(§2) Oral bioavailability was determined by dosing the animals (cynomologous monkeys and rats) intravenously and orally on separate occasions with the compounds. Blood samples were taken after appropriate intervals for determination of drug level in plasma. Appropriate pharmacokinetic calculations were then carried out based on plasma concentration against time relationship.

Series [2] concerns HIV (HTLV-IIIB) in H9 cells. Nature of the series: Effect of compounds on HIV multiplication in H9 cells (Test I). The class given is cell-based, human immunodeficiency virus (HTLV-IIIB). The note with it: 6-7 days, read-out: Concentration (μM) for 50% inhibition (IC50) of human immuno deficiency virus multiplication in cell culture. How it is done:
Materials and Methods: HIV Infection of H9 Cells H9 cells, 10^5 cells per well on a 24 well plate, suspended in 2 ml RPMI-medium containing 10% fetal calf serum, 100 μg/ml pencillin, 10 μg/ml streptomycin sulfate and 2 μg/ml polybrene are exposed to HIV (HTLV-IIIB) and different concentrations of the test compounds. The plates are incubated at 37° C. in 5% CO2 for 6-7 days. The contents in each well is then homogenized with a pipette and transferred to a centrifuge tube. After centrifugation for 10 min at 1500 rpm the supernatant is removed and the cell pellet is analyzed by fixing in methanol on glass plates. Human HIV positive serum diluted 1:80 or 1:160 is added and incubated for 30 min at 37° C. The pate is then washed with phosphate-buffered saline (PBS) containing Ca2+ and Mg2+. Sheep antihuman conjugate (FITC) is added and after a new incubation the plate is again washed with PBS. Contrast staining is done with Evans blue and after drying the frequency of HIV antigen containing cells is determined in a microscope.

The nature of series [3]: Cellular toxicity, inhibition of H9 cell multiplication (Test II). Type of series: cell-based. The following applies: human, H9 cells. How it is done: (§3) Test II--Cellular Toxicity
H9 cells, 2×10^7 cells per plate, are incubate in RPMI-1640 medium containing 10% fetal calf serum, 70 mg/l penicillin, 100 mg/l streptomycin and 10 mM hepes, in absence or presence of test compounds. The number of cells per plate is determined after 48 h. Cells incubated in the absence of test compounds then underwent two cell division cycles.
(§4) F5000 cells, which are human embryo cells, 1×10^5 cells per plate, are incubated in Eagle's minimal essential medium, supplemented with Earle's salts, non-essential amino acids, 10% fetal calf serum, 10 mM hepes, 70 mg/l penicillin and 100 mg/l streptomycin, in absence or presence of test compounds. The number of cells per plate is determined after 48 h. Cells incubated in the absence of test compounds underwent one cell division cycle.

The nature of series [4]: Cellular toxicity, inhibition of F5000 cell multiplication (Test II). Type of series: cell-based. The note with it: human, f5000 cells. The protocol: as §3, §4
The nature of series [5]: Oral bioavailability in monkey (Test III). Type of series: in vivo, cynomologous monkeys. How it is done:
as §1, §2

The mark [6] stands for this setting: Human immunodeficiency virus 1, IIIB, H9, H9 cells.
The mark [7] stands for this setting: plasma AUC relative to AUC after intravenously given VSA 671, read-out: Oral bioavailability F of compound determined as VSA 671.

Molecules are shown by their SMILES. Counter-ions that a name gives are not always drawn. Like-named read-outs stand apart in the source and are kept apart here.

Regarding `CCC(=O)OCCC(COC(=O)CC)Cn1cnc2c(=O)[nH]c(N)nc21` (stereo not drawn) [VSC 641, 9-[4-propionoxy-2-(propionoxymethyl)butyl]guanine.HCl], in series [1], the “plasma concentration of VSA 671 after VSA 671 has been given as 6-deoxy prodrug or ester” value is recorded as “significantly increased”. As usually defined, the inhibition is the drop in the measured response relative to a control, in per cent. As for `Nc1ncnc2c1ncn2CC(CO)CCO` (stereo not drawn) [VSC 600, 9-(4-Hydroxy-2-hydroxymethylbutyl)adenine], the IC50 in series [2] (setting [6]) came out at 10 µM. Also, the inhibition at 48 h, 200 µM in series [3] (200 μM) came out at 25%. Besides, the inhibition at 48 h, 500 µM in series [4] (500 μM) was 25%. As for `Nc1ncc2ncn(CC(CO)CCO)c2n1` (stereo not drawn) [VSB 212, 2-(2-Aminopurin-9yl)methyl butan-1,4-diol], the “plasma concentration of VSA 671 after VSA 671 has been given as 6-deoxy prodrug or ester” value in series [1] is reported as “significantly increased”. As to `Nc1nc2c(ncn2CC(CO)CCO)c(=O)[nH]1` (single isomer, unassigned; (+)) [VSB 648, (+)-9-[4-hydroxy-2(hydroxymethyl)butyl]-guanine], the IC50 in series [2] (H9 cells) was 1 to 5 µM.

As to `CC(=O)OCCC(COC(C)=O)Cn1cnc2cnc(N)nc21` (stereo not drawn) [VSC 610, 2-(2-Aminopurin-9-yl)methylbutane-1,4-diol diacetate], in series [5] (in words), the “plasma concentration of VSA 671 after VSA 671 has been given as ester of 6-deoxy prodrug” value is given as “significantly increased”.

Take `CC(=O)OCCC(COC(C)=O)Cn1cnc2c(=O)[nH]c(N)nc21` (stereo not drawn) [VSC 640, 9-[4-acetoxy-2-(acetoxymethyl)butyl]guanine.HCl]: the “plasma concentration of VSA 671 after VSA 671 has been given as 6-deoxy prodrug or ester” value in series [1] is reported as “significantly increased”. As a reminder, the bioavailability is dose-corrected exposure relative to a reference, in per cent. For `Nc1nc2c(ncn2CC(CO)CCO)c(=O)[nH]1` (racemic) [VSA 671, 9-[4-hydroxy-2-(hydroxymethyl)butyl]guanine], in series [2] (setting [6]), the IC50 is 1 to 10 µM. Besides, the inhibition at 48 h, 500 µM in series [3] (500 μM) was 55%. The compound further had an inhibition at 48 h, 1000 µM in series [4] (1000 μM) of 55%. Besides, the bioavailability in series [5] (setting [7]) worked out at 10%; in series [1] (setting [7]), 11%.

In the case of `Nc1nc2c(ncn2CC(CO)CCO)c(=O)[nH]1` (single isomer, unassigned; (-)) [VSB 647, (-)-9-(4-Hydroxy-2-hydroxymethylbutyl)guanine], the IC50 in series [2] (H9 cells) lay within 0.1 to 7 µM. In addition, in series [3] (100 μM), the inhibition at 48 h, 100 µM was determined as 5%.
